The source made the active and inactive calls.
Legend:
cells [1] = format: functional, cell-based
[2] = target: T1, Trace amine-associated receptor 1 (Homo sapiens, UniProt Q96RJ0); assay: Fluorescence-based cell-based high throughput dose response assay to identify agonists of the human trace amine associated receptor 1 (TAAR1).; format: functional
T1 sequence (Q96RJ0 whole entry): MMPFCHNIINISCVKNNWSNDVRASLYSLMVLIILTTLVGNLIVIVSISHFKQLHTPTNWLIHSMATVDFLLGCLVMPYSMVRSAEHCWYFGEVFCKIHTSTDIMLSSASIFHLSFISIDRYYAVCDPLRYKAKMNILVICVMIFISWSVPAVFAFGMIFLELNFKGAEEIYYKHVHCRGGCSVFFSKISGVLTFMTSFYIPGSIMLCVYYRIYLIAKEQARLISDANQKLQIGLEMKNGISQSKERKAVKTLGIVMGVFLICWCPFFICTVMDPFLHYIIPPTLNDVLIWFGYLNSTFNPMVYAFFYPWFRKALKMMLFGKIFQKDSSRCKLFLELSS

[3] = target: T1, Trace amine-associated receptor 1; assay: Counterscreen for agonists of the human trace amine associated receptor 1 (hTAAR1): Fluorescence-based cell-based high throughput dose response assay to identify hTAAR1 agonist that also desensitize TAAR1 receptor response.; format: functional
cells [4] = format: functional, cell-based; remark: listed apart in the source
Cytochrome P450 2C19 = Cytochrome P450 2C19 (Homo sapiens, UniProt P33261); assay: Cytochrome panel assay with activity outcomes. Panel member name: p450-cyp2c19 Compounds with AC50 equal or less than 10 uM are considered active; format: functional; settings: read-out: AC50
[5] = target: 26S proteasome non-ATPase regulatory subunit 14 (Homo sapiens, UniProt O00487); assay: inhibition of proteasome subunit RPN11 – biochemical, fluorescence polarization, uHTS hits, confirmation (AID 602368); format: functional
[6] = target: 72 kDa type IV collagenase (Homo sapiens, UniProt P08253); assay: Dose Response validation of uHTS RPN11 inhibitor hits using a MMP-2 Fluorescence assay.; format: functional
Prothrombin = Prothrombin (Bos taurus, UniProt P00735); assay: thrombin inhibition, dose response, biochemical, fluorescence polarization, uHTS hits (AID 602369); format: functional
Cytochrome P450 2C9 = Cytochrome P450 2C9 (Homo sapiens, UniProt P11712)
[7] = target: T2, Carboxy-terminal domain RNA polymerase II polypeptide A small phosphatase 1 (Homo sapiens, UniProt Q9GZU7); assay: inhibitors of CTDSP1, concentration-response testing, biochemical assay, absorbance-based, actives from ultra-high-throughput screening (AID 540297); format: functional
T2 sequence (Q9GZU7 whole entry): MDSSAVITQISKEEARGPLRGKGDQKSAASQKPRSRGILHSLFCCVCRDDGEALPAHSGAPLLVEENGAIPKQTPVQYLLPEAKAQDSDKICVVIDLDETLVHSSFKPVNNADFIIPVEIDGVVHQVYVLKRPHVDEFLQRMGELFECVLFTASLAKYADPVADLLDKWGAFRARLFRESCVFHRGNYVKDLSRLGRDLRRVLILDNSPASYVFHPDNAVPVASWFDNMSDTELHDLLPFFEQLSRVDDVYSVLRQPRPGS

[8] = target: T3, Tyrosine-protein phosphatase non-receptor type 11 (Homo sapiens, UniProt Q06124); assay: SHP2 phosphatase inhibition, dose response, selectivity assay for STEP inhibitor project, biochemical (AID 602367); format: functional; settings: read-out: IC50_Mean
T3 sequence (Q06124 whole entry): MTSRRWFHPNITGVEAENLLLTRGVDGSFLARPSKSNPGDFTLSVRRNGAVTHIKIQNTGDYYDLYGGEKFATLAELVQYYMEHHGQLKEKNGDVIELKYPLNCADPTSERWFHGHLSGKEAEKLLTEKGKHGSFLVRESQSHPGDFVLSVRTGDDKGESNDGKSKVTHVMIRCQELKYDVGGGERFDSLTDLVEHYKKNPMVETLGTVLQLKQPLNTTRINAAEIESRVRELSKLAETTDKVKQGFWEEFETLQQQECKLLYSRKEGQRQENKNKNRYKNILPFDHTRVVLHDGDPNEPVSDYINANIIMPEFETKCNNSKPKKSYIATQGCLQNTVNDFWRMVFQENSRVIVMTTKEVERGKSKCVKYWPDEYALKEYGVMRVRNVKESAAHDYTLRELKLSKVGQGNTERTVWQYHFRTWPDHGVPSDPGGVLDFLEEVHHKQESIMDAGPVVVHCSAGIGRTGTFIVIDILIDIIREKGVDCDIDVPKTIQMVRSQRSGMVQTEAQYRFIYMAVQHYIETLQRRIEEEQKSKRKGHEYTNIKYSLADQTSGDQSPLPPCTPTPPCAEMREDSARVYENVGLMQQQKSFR

[9] = target: T4, Tyrosine-protein phosphatase non-receptor type 5 (Homo sapiens, UniProt P54829); assay: STEP phosphatase inhibitors, confirmation, biochemical, fluorescence intensity, uHTS hits (AID 602372); format: functional; settings: read-out: IC50_Mean
T4 sequence (P54829 whole entry): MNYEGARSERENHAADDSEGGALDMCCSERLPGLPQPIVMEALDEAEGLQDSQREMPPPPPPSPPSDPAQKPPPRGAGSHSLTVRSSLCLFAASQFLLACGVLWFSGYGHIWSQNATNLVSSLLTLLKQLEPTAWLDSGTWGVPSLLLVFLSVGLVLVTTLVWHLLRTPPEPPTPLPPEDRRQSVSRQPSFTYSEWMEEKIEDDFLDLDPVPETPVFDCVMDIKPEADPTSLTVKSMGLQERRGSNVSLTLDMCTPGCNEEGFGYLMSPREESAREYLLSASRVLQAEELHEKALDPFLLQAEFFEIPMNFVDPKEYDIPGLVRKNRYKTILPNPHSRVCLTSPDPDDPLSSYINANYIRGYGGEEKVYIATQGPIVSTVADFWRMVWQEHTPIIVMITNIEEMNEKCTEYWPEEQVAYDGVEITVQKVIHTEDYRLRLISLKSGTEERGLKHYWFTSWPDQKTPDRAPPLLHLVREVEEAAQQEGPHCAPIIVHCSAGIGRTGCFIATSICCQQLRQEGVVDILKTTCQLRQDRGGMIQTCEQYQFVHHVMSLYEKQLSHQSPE

[10] = target: Dual specificity protein phosphatase 3 (Homo sapiens, UniProt P51452); assay: VHR phosphatase inhibition, dose response, selectivity assay for STEP inhibitor project, biochemical (AID 602374); format: functional; settings: read-out: IC50_Mean
Galanin receptor type 3 = target: T5, Galanin receptor type 3 (Homo sapiens, UniProt O60755); assay: Fluorescence-based cell-based primary high throughput dose response assay to identify antagonists of the Galanin Receptor 3 (GalR3).; format: functional
T5 sequence (O60755 whole entry): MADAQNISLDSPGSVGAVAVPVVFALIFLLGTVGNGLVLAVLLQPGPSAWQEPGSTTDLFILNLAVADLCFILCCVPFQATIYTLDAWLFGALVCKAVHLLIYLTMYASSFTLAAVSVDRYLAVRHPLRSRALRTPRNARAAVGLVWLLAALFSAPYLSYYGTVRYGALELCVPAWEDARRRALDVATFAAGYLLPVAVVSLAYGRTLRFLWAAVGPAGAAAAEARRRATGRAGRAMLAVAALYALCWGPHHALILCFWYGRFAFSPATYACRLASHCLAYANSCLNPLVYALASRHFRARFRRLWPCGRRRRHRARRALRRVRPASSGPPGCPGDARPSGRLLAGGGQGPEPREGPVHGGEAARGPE

cells [11] = format: functional, cell-based; settings: HEK-CNG
[12] = target: Peroxisome proliferator-activated receptor gamma/Nuclear receptor corepressor 2 (Homo sapiens, UniProt P37231+Q9Y618); assay: Counterscreen for NR2E3 inverse agonists: TR-FRET-based biochemical high throughput dose response assay to identify inverse agonists of the interaction between peroxisome proliferator-activated receptor gamma (PPARg) and nuclear receptor co-repressor 2 (NCOR2).; format: functional
[13] = target: Photoreceptor-specific nuclear receptor (Homo sapiens, UniProt Q9Y5X4); assay: NR2E3 inverse agonists, dose response, biochemical, TR-FRET (AID 463256); format: functional
[14] = target: Ras and Rab interactor 1/Tyrosine-protein kinase ABL1 (Homo sapiens, UniProt P00519+Q13671); assay: biochemical; format: functional;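 further: biochemical TR-FRET dose-response test measuring inhibition of binding between Rin1 and Abl proteins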
Nonstructural protein 1 = Nonstructural protein 1 (Influenza A virus, UniProt Q194T2); format: functional, Influenza A virus (A/California/07/2009(H1N1))
[15] = target: T6, Histone-lysine N-methyltransferase NSD2 (Homo sapiens, UniProt O96028); format: biochemical
T6 sequence (O96028 whole entry): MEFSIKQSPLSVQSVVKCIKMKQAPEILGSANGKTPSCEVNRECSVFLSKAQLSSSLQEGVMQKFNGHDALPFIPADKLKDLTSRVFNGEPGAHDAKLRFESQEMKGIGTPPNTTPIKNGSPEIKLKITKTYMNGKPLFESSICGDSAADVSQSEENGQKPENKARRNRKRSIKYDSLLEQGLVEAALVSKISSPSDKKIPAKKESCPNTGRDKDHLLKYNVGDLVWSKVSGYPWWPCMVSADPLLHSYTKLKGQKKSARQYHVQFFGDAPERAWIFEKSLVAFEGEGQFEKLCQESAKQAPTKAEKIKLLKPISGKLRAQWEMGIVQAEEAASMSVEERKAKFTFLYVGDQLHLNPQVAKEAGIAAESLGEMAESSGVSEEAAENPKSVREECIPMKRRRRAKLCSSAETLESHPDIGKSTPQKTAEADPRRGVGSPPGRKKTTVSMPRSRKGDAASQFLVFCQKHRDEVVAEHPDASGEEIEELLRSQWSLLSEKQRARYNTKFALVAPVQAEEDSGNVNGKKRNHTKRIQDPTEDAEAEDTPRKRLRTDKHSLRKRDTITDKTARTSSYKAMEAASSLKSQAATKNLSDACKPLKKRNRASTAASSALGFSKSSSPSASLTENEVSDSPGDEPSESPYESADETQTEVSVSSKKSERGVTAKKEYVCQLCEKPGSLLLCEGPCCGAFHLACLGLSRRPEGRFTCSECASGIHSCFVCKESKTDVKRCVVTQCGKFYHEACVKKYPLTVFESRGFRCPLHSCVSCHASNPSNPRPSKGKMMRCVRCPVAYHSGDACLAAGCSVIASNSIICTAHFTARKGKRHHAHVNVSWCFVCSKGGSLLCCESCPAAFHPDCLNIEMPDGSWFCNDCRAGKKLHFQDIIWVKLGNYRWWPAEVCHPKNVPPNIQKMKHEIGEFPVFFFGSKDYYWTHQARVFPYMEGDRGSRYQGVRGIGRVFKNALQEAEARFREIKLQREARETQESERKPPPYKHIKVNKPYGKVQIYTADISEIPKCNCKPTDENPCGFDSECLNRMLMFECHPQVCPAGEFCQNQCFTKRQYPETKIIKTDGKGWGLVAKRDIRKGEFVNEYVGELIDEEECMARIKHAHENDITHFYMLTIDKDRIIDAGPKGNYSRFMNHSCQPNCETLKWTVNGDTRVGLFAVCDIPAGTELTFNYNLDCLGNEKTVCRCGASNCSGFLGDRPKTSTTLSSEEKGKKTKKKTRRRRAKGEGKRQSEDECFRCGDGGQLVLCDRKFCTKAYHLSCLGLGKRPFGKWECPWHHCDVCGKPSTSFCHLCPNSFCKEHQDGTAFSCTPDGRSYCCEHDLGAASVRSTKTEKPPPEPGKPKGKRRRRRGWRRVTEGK

[16] = inhibitors of HIV Env-driven cell fusion, dose response, cherry-pick (AID 652057); format: functional, cell-based
[17] = ZM109 Env clade C HIV-1 fusion inhibitors, dose response, HeLa effector, CEM target cells, luciferase, cherry-pick (AID 652058); format: functional, cell-based
[18] = off-target signal loss in HeLa-CEM21 co-culture – HeLa F-luc CTL cells, cherry-picked, counter-screen for HIV-1 Env fusion inhibitor project, dose response (AID 652040); format: functional, cell-based;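 further: potency for signal decrease marking cytotoxic or nonspecific inhibition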
[19] = inhibitors of clade B AD8 Env fusion, dose response, cell-based, cherry-pick (AID 652062); format: functional;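 further: luciferase signal from cell-cell fusion driven by HIV-1 clade B AD8 Env; potency is for inhibitors of fusion seen as a drop in luminescence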

72 kDa type IV collagenase, sequence (P08253 whole entry): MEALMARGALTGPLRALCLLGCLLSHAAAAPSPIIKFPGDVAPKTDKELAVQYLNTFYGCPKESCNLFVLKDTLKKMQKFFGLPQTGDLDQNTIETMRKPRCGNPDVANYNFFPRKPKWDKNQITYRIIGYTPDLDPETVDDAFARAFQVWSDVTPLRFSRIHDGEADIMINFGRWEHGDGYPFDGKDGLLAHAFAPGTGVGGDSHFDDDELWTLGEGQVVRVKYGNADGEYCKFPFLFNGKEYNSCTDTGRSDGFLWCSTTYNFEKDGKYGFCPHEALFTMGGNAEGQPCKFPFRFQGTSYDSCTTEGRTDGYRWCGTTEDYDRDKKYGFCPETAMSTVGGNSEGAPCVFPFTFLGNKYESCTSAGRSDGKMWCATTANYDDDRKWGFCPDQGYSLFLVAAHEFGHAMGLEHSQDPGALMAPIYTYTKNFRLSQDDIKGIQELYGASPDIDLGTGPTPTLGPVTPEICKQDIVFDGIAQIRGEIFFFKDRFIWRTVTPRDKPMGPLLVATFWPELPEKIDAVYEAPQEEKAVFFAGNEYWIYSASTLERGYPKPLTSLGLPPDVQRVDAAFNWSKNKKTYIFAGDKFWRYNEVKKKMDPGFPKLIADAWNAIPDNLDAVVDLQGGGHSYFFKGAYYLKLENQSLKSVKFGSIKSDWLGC
Ras and Rab interactor 1/Tyrosine-protein kinase ABL1, sequence (P00519 whole entry): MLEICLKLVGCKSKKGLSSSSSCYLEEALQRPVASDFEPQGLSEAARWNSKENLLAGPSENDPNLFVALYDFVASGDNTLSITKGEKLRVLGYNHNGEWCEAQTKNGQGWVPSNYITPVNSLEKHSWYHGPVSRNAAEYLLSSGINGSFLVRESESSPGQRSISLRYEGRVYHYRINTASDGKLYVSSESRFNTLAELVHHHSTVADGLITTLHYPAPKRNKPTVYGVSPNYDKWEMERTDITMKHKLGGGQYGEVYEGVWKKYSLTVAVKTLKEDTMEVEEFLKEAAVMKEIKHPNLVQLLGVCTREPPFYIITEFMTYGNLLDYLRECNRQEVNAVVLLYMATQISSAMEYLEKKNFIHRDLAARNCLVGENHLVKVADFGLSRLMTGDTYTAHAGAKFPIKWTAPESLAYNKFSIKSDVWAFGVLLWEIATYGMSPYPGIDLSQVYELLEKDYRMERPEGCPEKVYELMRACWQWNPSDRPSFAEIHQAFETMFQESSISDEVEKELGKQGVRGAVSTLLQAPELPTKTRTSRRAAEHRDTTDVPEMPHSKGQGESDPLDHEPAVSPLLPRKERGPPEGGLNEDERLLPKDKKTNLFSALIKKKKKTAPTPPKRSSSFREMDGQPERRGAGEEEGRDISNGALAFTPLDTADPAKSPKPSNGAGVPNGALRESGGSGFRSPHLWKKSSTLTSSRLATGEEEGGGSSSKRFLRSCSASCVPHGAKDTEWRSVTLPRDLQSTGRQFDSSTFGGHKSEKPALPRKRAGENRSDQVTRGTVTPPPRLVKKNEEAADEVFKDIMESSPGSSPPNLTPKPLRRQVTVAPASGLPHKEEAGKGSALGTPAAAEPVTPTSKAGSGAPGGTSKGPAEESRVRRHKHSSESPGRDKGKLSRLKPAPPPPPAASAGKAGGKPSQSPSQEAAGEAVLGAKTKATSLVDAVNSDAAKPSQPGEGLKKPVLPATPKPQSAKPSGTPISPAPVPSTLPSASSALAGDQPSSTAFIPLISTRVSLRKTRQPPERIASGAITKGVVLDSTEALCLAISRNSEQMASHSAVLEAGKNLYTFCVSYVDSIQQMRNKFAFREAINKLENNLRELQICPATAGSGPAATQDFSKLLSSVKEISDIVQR
Ras and Rab interactor 1/Tyrosine-protein kinase ABL1, sequence (Q13671 whole entry): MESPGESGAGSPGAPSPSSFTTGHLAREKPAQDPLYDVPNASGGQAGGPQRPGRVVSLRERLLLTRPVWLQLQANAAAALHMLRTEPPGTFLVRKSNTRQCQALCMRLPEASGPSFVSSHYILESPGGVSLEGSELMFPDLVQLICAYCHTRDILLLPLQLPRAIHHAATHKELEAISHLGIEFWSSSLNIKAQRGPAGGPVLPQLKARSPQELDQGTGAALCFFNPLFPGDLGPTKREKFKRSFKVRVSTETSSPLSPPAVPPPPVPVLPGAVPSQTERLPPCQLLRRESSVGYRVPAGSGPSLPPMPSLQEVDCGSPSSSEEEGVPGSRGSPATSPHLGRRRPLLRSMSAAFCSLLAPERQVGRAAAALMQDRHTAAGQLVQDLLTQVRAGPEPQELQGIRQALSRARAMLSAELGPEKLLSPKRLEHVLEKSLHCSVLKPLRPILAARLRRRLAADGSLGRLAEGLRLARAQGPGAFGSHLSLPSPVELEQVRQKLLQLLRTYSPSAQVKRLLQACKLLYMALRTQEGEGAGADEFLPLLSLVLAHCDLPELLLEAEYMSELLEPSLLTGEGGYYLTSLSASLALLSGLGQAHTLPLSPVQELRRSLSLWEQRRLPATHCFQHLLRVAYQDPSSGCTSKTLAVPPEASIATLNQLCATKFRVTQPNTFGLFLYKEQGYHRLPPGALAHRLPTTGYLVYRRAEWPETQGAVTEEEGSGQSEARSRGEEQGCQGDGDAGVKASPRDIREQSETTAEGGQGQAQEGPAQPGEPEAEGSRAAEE
26S proteasome non-ATPase regulatory subunit 14, sequence (O00487 whole entry): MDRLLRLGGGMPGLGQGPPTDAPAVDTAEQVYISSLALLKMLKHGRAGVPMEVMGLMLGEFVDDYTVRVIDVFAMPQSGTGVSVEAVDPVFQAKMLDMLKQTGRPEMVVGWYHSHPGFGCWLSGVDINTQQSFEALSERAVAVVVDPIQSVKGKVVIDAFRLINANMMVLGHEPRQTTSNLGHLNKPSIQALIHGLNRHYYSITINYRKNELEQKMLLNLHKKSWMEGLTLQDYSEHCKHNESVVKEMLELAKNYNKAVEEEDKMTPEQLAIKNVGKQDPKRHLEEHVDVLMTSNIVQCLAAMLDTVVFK
Dual specificity protein phosphatase 3, sequence (P51452 whole entry): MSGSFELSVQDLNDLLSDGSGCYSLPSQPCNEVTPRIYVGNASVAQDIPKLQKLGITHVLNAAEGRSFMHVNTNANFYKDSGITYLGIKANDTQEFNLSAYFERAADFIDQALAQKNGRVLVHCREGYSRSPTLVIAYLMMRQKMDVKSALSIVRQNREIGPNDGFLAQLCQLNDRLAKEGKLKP
Cytochrome P450 2C9, sequence (P11712 whole entry, the tested form may be a part): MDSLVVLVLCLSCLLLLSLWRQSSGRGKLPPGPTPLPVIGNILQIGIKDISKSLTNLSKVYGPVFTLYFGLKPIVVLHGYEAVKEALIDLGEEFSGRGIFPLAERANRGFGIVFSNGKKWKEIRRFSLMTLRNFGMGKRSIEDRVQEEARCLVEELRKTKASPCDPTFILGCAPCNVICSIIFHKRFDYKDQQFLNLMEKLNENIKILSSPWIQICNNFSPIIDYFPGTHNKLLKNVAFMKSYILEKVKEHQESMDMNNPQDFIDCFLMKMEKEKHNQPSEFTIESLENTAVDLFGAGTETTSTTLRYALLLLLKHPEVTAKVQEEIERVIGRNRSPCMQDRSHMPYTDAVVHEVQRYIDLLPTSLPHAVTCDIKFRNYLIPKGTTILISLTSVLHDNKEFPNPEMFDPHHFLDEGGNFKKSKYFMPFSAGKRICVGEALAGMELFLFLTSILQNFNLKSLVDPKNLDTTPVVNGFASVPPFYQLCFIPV
Photoreceptor-specific nuclear receptor, sequence (Q9Y5X4 whole entry): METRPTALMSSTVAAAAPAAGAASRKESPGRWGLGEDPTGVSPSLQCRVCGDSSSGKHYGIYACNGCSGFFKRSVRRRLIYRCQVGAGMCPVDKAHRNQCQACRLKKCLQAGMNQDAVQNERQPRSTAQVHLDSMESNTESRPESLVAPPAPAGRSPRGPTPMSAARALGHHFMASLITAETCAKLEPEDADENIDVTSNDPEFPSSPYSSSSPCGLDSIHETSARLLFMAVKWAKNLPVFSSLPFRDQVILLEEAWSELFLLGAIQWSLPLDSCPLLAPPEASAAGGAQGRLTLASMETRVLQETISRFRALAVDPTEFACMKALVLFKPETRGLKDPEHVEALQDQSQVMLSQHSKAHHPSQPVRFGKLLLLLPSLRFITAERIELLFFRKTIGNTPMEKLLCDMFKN
Cytochrome P450 2C19, sequence (P33261 whole entry): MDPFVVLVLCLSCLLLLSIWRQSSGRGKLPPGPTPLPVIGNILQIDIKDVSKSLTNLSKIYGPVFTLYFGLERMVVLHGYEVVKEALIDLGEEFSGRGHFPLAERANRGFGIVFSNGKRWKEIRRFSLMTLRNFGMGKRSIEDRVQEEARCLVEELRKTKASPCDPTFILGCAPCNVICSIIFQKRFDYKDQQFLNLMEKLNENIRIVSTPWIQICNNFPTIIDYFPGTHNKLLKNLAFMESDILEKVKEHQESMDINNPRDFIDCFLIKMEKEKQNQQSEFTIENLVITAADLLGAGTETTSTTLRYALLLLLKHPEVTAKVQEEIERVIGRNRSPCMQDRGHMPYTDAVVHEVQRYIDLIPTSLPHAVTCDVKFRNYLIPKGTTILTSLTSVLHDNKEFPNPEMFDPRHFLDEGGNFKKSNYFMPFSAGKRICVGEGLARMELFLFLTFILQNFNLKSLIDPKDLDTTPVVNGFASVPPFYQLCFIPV
Nonstructural protein 1, sequence (Q194T2 whole entry): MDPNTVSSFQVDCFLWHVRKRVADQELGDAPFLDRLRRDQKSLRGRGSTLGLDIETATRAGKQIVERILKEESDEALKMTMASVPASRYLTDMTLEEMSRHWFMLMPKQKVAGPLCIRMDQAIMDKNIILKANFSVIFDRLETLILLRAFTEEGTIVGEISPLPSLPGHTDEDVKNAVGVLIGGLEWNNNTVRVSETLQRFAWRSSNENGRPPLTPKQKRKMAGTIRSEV

## COc1cc(C(C)=O)ccc1OCC(O)CNCC(O)c1ccccc1 (stereo not given)
Cells [1]
  IC50: > 29.9 µM (inactive)
[2]
  EC50: 2.13 µM (active)
[3]
  IC50: 12.3 µM (inactive)
Cells [4]
  EC50: > 29.9 µM (inactive)

## O=C(NN=C1c2ccccc2-c2ccccc21)c1ccccn1
Cytochrome P450 2C19
  AC50: 2.82 µM (inconclusive)
[5]
  IC50: 24.4 µM (active)
[6]
  IC50: > 100 µM (inactive)
Prothrombin
  IC50: > 100 µM (inactive)
Cytochrome P450 2C9
  AC50: 7.08 µM (inconclusive)

## O=C(COc1ccc([N+](=O)[O-])cc1)Nc1nnc(-c2cccnc2)s1
[7]
  IC50: 5.51 µM (active)
[8]
  IC50: 2.44 µM (active)
[9]
  IC50: 59.9 µM (inactive)
[10]
  IC50: 4.25 µM (active)

## c1ccc2c(c1)CCN(c1nc3cc4c(cc3s1)OCO4)C2
Cells [1]
  IC50: > 29.9 µM (inactive)
[2]
  EC50: 0.751 µM (active)
[3]
  IC50: 2.96 µM (active)
Cells [4]
  EC50: > 29.9 µM (inactive)

## O=C(C(=O)c1cc(Br)ccc1O)c1cc(Br)ccc1O
Galanin receptor type 3
  IC50: 1.1 µM (active)
Cells [11]
  EC50: > 29.9 µM (inactive)

## CC(C)(C)C(=O)Nc1ccc(C(=O)Nc2cccc(Oc3ccc(C(=O)O)c(C(=O)O)c3)c2)cc1
[8]
  IC50: 16.5 µM (active)
[9]
  IC50: 13.6 µM (active)
[10]
  IC50: 38.4 µM (inactive)

## O=C(Nc1nc(-c2nc3ccccc3s2)cs1)c1ccco1
[12]
  IC50: 3.92 µM (active)
[13]
  IC50: 2.44 µM (active)
[5]
  IC50: 10.1 µM (active)
[6]
  IC50: > 100 µM (inactive)
Prothrombin
  IC50: 75.1 µM (active)

## CN(C(=O)c1ccc(NC(=O)Cc2ccc(NC(=O)C3CCN(C(=O)c4ccccc4)CC3)cc2)cc1)C1CC1
[14]
  IC50: 0.407 µM (active)

## CC1NC(=O)NC1CCCCCC(=O)Nc1ccc(F)cc1 (stereo not given)
Nonstructural protein 1
  IC50: 0.979 µM (active)
[14]
  IC50: 0.0187 µM (active)
[15]
  AC50: 0.113 µM (active)

## CCOc1ccc(C(C)=O)cc1COC(=O)c1ccccc1C(=O)N(C)Cc1ccccc1
[16]
  AC50: 3.55 µM (active)
[17]
  AC50: 4.87 µM (active)
[18]
  AC50: 5.14 µM (active)
[19]
  AC50: 6.39 µM (active)

— ChEMBL document CHEMBL1201862, “PubChem BioAssay data set” (2004)
